Reference: ChEMBL document CHEMBL1135751, “A trypanocidal phenazine derived from beta-lapachone” (2002)

Test system: Trypanosoma cruzi
Assay: Trypanocidal effect on bloodstream trypomastigotes of Trypanosoma cruzi; ED50/24h
Type: functional

Structure (SMILES)	ED50 [µM]
CC1(C)CCc2c(c3ccccc3c3nc4cc(Nc5ccccc5)/c(=N/c5ccccc5)cc-4n(-c4ccccc4)c23)O1	61.3
CN(C)c1ccc(C(=C2C=CC(=[N+](C)C)C=C2)c2ccc(N(C)C)cc2)cc1	536
